Data reported in patent US20080009418A1, “Selective Inhibitors” (Alchemia LTD., priority 2004, published 2008).

Experiments:
Human δ-opioid (DOP) = biological target: T1, Human δ-opioid (DOP) (Homo sapiens, UniProt P41143); test: Radioligand binding, human δ-opioid (DOP) membranes, FlashPlate, [3H]-Bremazocine; conditions: compound at 10 μM; [3H]-Bremazocine
T1 construct: purchased Perkin Elmer Biosignal
Procedure, shortened: (§1)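 Cloned human receptor membranes were coated onto FlashPlate wells and incubated with radioligand and compound (added from a 0.5 mM DMSO daughter plate) for 1 hour at room temperature in the dark. Scintillation counting gave percent inhibition, with DMSO defining total and reference ligand defining non-specific binding.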

Human neurokinin (NK1) = biological target: T2, Human neurokinin (NK1) (Homo sapiens, UniProt P25103); test: Radioligand binding, human neurokinin NK1 membranes, filtration, [125I]-Substance P; conditions: compound at 10 μM; [125I]-Substance P
T2 construct: purchased Perkin Elmer Biosignal
T2 sequence (P25103 whole entry): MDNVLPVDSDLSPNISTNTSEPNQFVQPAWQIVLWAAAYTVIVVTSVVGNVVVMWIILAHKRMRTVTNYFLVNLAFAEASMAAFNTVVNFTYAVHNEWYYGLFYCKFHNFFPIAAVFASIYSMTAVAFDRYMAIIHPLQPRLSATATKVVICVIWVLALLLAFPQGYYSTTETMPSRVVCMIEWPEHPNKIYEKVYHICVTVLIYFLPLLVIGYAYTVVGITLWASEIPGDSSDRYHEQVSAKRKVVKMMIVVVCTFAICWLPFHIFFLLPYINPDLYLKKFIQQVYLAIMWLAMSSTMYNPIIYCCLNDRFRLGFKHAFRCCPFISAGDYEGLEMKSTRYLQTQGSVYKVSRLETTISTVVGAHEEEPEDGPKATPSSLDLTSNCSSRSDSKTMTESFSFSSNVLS
Procedure, shortened: (§2)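 Membranes from cloned human receptors were incubated with compound and radioligand for 1 hour at room temperature. Bound ligand was collected on 0.3% PEI-soaked filters, washed with cold 50 mM Tris-HCl pH 7.4, and counted by scintillation. Percent inhibition was computed against DMSO totals and reference-ligand nonspecific wells.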

[1] = biological target: T3, Human melanin-concentrating hormone (MCH1) (Homo sapiens, UniProt Q99705); test: Radioligand binding, human melanin-concentrating hormone MCH1 membranes, FlashPlate, [125I]-S36057; conditions: compound at 10 μM; [125I]-S36057
T3 construct: purchased Perkin Elmer Biosignal
T3 sequence (Q99705 whole entry): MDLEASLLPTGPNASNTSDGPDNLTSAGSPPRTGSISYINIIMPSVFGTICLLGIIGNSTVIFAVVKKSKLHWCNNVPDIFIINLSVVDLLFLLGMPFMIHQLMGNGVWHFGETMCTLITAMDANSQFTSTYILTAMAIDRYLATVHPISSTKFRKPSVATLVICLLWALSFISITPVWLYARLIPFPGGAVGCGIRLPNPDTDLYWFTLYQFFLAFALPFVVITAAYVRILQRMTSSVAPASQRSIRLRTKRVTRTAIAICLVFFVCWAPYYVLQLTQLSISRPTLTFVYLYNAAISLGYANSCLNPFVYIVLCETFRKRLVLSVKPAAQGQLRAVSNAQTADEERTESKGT
Procedure, shortened: as §1

Human μ-opioid (MOP) = biological target: T4, Human μ-opioid (MOP) (Homo sapiens, UniProt P35372); test: Radioligand binding, human μ-opioid (MOP) membranes, FlashPlate, [3H]-Naloxone; conditions: compound at 10 μM; [3H]-Naloxone
T4 construct: purchased Perkin Elmer Biosignal
T4 sequence (P35372 whole entry): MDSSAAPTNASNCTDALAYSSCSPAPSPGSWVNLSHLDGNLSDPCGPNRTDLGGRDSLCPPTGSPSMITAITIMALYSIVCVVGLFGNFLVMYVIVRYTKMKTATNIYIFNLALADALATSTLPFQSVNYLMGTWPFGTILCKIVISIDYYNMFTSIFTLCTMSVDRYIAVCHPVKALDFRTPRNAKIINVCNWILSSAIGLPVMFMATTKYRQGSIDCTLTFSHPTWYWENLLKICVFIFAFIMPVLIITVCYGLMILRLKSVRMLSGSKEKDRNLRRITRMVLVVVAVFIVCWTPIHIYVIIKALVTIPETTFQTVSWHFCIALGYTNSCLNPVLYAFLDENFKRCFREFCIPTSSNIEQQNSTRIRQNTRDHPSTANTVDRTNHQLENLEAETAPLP
Procedure, shortened: as §1

Human κ-Opioid (KOP) = biological target: T5, Human κ-Opioid (KOP) (Homo sapiens, UniProt P41145); test: Radioligand binding, human κ-opioid (KOP) membranes, filtration, [3H]-Diprenorphine; conditions: compound at 10 μM; [3H]-Diprenorphine
T5 construct: purchased Perkin Elmer Biosignal
T5 sequence (P41145 whole entry): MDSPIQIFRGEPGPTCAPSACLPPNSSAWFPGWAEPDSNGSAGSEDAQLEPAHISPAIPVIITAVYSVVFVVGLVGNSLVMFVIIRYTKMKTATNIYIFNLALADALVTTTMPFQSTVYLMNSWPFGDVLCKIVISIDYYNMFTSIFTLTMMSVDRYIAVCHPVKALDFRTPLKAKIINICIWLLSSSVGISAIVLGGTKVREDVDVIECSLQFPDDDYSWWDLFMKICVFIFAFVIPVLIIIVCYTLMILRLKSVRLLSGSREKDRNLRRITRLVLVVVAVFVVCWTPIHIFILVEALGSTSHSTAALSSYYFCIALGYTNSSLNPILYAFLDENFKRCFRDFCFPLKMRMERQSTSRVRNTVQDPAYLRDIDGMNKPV
Procedure, shortened: as §2

Human Melanocortin (MC4) = biological target: T6, Human Melanocortin (MC4) (Homo sapiens, UniProt P32245); test: Radioligand binding, human melanocortin MC4 membranes, FlashPlate, [125I]-NDP-αMSH; conditions: compound at 10 μM; [125I]-NDP-αMSH
T6 construct: purchased Perkin Elmer Biosignal
T6 sequence (P32245 whole entry): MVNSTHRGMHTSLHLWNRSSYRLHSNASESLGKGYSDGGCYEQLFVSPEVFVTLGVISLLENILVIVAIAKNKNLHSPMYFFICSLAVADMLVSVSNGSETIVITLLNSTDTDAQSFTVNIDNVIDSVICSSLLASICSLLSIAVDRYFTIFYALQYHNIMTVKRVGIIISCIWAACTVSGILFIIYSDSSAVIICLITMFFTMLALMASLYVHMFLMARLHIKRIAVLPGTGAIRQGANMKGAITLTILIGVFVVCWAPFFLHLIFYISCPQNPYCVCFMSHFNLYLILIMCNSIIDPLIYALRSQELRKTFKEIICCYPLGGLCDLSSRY
Procedure, shortened: as §1

[2] = biological target: T7, Human neuropeptide Y (NPY-Y1) (Homo sapiens, UniProt P25929); test: Radioligand binding, human neuropeptide Y NPY-Y1 membranes, FlashPlate, [125I]-PYY; conditions: compound at 10 μM; [125I]-PYY
T7 construct: purchased Perkin Elmer Biosignal
T7 sequence (P25929 1-384): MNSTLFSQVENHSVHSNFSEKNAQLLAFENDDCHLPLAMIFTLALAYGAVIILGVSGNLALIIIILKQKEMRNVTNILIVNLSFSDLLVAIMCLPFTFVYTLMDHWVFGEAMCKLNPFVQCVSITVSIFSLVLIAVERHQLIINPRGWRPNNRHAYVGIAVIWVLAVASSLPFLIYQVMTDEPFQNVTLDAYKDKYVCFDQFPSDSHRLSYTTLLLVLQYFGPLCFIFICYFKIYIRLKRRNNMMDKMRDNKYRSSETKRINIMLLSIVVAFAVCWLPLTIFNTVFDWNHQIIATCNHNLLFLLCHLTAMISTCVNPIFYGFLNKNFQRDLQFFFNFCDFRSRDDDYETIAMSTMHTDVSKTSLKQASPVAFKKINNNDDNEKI
Procedure, shortened: as §1

Human melanocortin (MC5) = biological target: T8, Human melanocortin (MC5) (Homo sapiens, UniProt P33032); test: Radioligand binding, human melanocortin MC5 membranes, FlashPlate, [125I]-NDP-αMSH; conditions: compound at 10 μM; [125I]-NDP-αMSH
T8 construct: purchased Perkin Elmer Biosignal
T8 sequence (P33032 whole entry): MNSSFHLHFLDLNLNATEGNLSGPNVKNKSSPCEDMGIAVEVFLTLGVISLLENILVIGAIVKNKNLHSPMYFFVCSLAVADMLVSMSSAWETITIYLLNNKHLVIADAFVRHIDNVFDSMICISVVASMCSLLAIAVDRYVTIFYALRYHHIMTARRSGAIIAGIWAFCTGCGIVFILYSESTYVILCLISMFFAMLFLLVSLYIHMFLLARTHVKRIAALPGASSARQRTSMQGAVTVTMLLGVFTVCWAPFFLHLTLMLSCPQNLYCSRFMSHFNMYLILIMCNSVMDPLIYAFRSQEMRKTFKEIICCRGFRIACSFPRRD
Procedure, shortened: as §1

Human Melanocortin (MC3) = biological target: T9, Human Melanocortin (MC3) (Homo sapiens, UniProt P41968); test: Radioligand binding, human melanocortin MC3 membranes, FlashPlate, [125I]-NDP-αMSH; conditions: compound at 10 μM; [125I]-NDP-αMSH
T9 construct: purchased Perkin Elmer Biosignal
T9 sequence (P41968 whole entry): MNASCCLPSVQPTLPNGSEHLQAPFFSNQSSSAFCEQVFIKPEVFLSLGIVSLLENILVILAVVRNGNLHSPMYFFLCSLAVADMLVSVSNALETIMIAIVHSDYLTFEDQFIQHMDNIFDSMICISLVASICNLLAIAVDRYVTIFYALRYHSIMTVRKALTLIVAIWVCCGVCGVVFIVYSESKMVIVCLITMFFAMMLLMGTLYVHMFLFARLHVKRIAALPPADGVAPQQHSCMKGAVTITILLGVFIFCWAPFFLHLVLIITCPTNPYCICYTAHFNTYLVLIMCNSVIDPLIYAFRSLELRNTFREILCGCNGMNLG
Procedure, shortened: as §1

Human opioid (ORL1) = biological target: T10, Human opioid (ORL1) (Homo sapiens, UniProt P41146); test: Radioligand binding, human opioid ORL1 membranes, FlashPlate, [125I]-Nociceptin; conditions: compound at 10 μM; [125I]-Nociceptin
T10 construct: purchased Perkin Elmer Biosignal
T10 sequence (P41146 whole entry): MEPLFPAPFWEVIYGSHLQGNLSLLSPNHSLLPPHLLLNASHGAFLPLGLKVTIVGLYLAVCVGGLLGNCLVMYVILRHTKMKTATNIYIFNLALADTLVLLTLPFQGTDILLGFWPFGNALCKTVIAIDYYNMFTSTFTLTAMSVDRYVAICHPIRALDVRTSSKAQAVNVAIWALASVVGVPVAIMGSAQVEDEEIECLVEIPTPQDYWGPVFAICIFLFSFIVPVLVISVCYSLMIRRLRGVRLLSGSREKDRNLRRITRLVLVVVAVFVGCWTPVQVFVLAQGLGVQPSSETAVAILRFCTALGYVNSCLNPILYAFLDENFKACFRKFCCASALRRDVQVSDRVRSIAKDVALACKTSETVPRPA
Procedure, shortened: as §1

Mouse urotensin (mUR2) = biological target: T11, Mouse urotensin (mUR2) (Mus musculus, UniProt Q8VIH9); test: Radioligand binding, mouse urotensin mUR2 membranes, FlashPlate, [125I]-Urotensin II; conditions: compound at 10 μM; [125I]-Urotensin II
T11 construct: purchased Perkin Elmer Biosignal
T11 sequence (Q8VIH9 1-385): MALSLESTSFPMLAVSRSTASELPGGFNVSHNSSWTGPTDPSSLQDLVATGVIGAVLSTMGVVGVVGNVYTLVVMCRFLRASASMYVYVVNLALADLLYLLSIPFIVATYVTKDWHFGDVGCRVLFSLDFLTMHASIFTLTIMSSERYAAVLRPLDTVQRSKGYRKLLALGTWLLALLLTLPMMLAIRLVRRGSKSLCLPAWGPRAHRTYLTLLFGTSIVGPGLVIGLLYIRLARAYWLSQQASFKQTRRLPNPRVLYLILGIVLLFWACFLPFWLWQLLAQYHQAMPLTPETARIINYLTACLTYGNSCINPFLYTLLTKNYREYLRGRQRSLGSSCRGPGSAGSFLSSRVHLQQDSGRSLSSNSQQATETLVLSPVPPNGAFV
Procedure, shortened: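 Cloned mouse urotensin (mUR2) receptor membranes from Perkin Elmer Biosignal were immobilized in FlashPlate microplates using a proprietary coating. Each well got 19.5 μl buffer, then 0.5 μl of DMSO, reference ligand, or compound. Adding 5 μl of [125I]-Urotensin II, diluted to 5× final concentration in binding buffer, started binding. Plates were sealed with TopSeal-A and incubated 1 hour at room temperature in the dark. Wells were counted for 30 seconds each on a TopCount after a 60-second delay, and percentage inhibition was calculated.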

T1 sequence (P41143 whole entry): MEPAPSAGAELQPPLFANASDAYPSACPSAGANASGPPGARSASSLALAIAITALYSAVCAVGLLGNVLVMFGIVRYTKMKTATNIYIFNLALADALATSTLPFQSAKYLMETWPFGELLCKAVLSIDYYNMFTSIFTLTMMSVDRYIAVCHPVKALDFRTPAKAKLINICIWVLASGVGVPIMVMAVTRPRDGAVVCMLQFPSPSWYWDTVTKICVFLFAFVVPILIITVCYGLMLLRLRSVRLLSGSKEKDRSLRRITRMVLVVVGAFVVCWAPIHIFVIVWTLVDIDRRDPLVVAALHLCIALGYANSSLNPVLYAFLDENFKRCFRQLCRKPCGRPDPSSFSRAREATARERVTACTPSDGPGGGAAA

Row | SMILES | A1 radioligand binding, percentage inhibition (Human δ-opioid (DOP)) | A8 radioligand binding, percentage inhibition (Human neurokinin (NK1)) | A6 radioligand binding, percentage inhibition [1] | A7 radioligand binding, percentage inhibition (Human μ-opioid (MOP)) | A2 radioligand binding, percentage inhibition (Human κ-Opioid (KOP)) | A4 radioligand binding, percentage inhibition (Human Melanocortin (MC4)) | A9 radioligand binding, percentage inhibition [2] | A5 radioligand binding, percentage inhibition (Human melanocortin (MC5)) | A3 radioligand binding, percentage inhibition (Human Melanocortin (MC3)) | A10 radioligand binding, percentage inhibition (Human opioid (ORL1)) | A11 radioligand binding, percentage inhibition (Mouse urotensin (mUR2))
1 | CO[C@H]1[C@H](O)[C@@H](COCc2ccccc2)OC(OCc2ccc(Cl)cc2)[C@@H]1NC(=O)CNC(=N)N (stereo partly shown) [compound 101] | − (“−” indicates less than 50% inhibition at 10 μM) | − (“−” indicates less than 50% inhibition at 10 μM) | − (“−” indicates less than 50% inhibition at 10 μM) | − (“−” indicates less than 50% inhibition at 10 μM) | − (“−” indicates less than 50% inhibition at 10 μM) | − (“−” indicates less than 50% inhibition at 10 μM) | − (“−” indicates less than 50% inhibition at 10 μM) | + (“+” indicates greater than 50% inhibition at 10 μM) | − (“−” indicates less than 50% inhibition at 10 μM) | − (“−” indicates less than 50% inhibition at 10 μM) | − (“−” indicates less than 50% inhibition at 10 μM)
2 | CO[C@H]1[C@H](O)[C@@H](COCc2ccccc2)OC(OCc2ccc(Cl)cc2)[C@@H]1NC(=O)CCNC(=N)N (stereo partly shown) [compound 102] | − (“−” indicates less than 50% inhibition at 10 μM) | − (“−” indicates less than 50% inhibition at 10 μM) | − (“−” indicates less than 50% inhibition at 10 μM) | − (“−” indicates less than 50% inhibition at 10 μM) | − (“−” indicates less than 50% inhibition at 10 μM) | − (“−” indicates less than 50% inhibition at 10 μM) | − (“−” indicates less than 50% inhibition at 10 μM) | + (“+” indicates greater than 50% inhibition at 10 μM) | − (“−” indicates less than 50% inhibition at 10 μM) | − (“−” indicates less than 50% inhibition at 10 μM) | − (“−” indicates less than 50% inhibition at 10 μM)
3 | CO[C@H]1[C@H](O)[C@@H](COCc2ccccc2)OC(OCc2ccc(Cl)cc2)[C@@H]1NC(=O)CCCN (stereo partly shown) [compound 103] | − (“−” indicates less than 50% inhibition at 10 μM) | + (“+” indicates greater than 50% inhibition at 10 μM) | − (“−” indicates less than 50% inhibition at 10 μM) | − (“−” indicates less than 50% inhibition at 10 μM) | − (“−” indicates less than 50% inhibition at 10 μM) | − (“−” indicates less than 50% inhibition at 10 μM) | − (“−” indicates less than 50% inhibition at 10 μM) | − (“−” indicates less than 50% inhibition at 10 μM) | − (“−” indicates less than 50% inhibition at 10 μM) | − (“−” indicates less than 50% inhibition at 10 μM) | − (“−” indicates less than 50% inhibition at 10 μM)
4 | CO[C@H]1[C@H](O)[C@@H](COCc2ccccc2)OC(OCc2ccc(Cl)cc2)[C@@H]1NC(=O)CCCNC(=N)N (stereo partly shown) [compound 104] | − (“−” indicates less than 50% inhibition at 10 μM) | + (“+” indicates greater than 50% inhibition at 10 μM) | − (“−” indicates less than 50% inhibition at 10 μM) | + (“+” indicates greater than 50% inhibition at 10 μM) | − (“−” indicates less than 50% inhibition at 10 μM) | + (“+” indicates greater than 50% inhibition at 10 μM) | − (“−” indicates less than 50% inhibition at 10 μM) | + (“+” indicates greater than 50% inhibition at 10 μM) | − (“−” indicates less than 50% inhibition at 10 μM) | − (“−” indicates less than 50% inhibition at 10 μM) | − (“−” indicates less than 50% inhibition at 10 μM)
5 | CO[C@H]1[C@H](O)[C@@H](COCc2ccc(Cl)cc2)OC(OCc2ccc(Cl)cc2)[C@@H]1NC(=O)CNC(=N)N (stereo partly shown) [compound 105] | − (“−” indicates less than 50% inhibition at 10 μM) | + (“+” indicates greater than 50% inhibition at 10 μM) | − (“−” indicates less than 50% inhibition at 10 μM) | − (“−” indicates less than 50% inhibition at 10 μM) | − (“−” indicates less than 50% inhibition at 10 μM) | + (“+” indicates greater than 50% inhibition at 10 μM) | − (“−” indicates less than 50% inhibition at 10 μM) | + (“+” indicates greater than 50% inhibition at 10 μM) | − (“−” indicates less than 50% inhibition at 10 μM) | − (“−” indicates less than 50% inhibition at 10 μM) | − (“−” indicates less than 50% inhibition at 10 μM)
